Data as given in patent US20260272895A1, “METHODS AND KITS FOR DELIVERY OF COMPOUNDS INTO CELLS” (Yale University, priority 2023, published 2026).
Entries after “also recorded” stand apart in the source; their conditions may differ.

Key:
[1] = tested on: SLC2A3; assay: Compound uptake in HEK293 expressing solute carrier family 2 member 3; type: cell-based
Procedure: HEK293 cells are cultured and seeded at ~60% confluency in 24-well plates and are transiently transfected with 250 ng of a candidate transporter and 1 μL transfection reagent (JetPRIME). After 2 days, cells are washed and novel fluorescent probes at different concentrations are added to the transport medium and incubated at 37° C., for at least 30 minutes. To terminate the transport, cells are washed with PBS and fixed with 4% paraformaldehyde. The colocalization of probe uptake and cells expressing the transporters is investigated by immunostaining the transporter which has a fused FLAG tag, using anti-FLAG 488. Before confocal imaging, nuclei are labeled with Hoechst 33342 and cells are mounted and imaged on a Leica SP8 confocal microscope.
For in vitro experiments, HEK293 cells were cultured and seeded in 24-well plates, reaching approximately 60% confluency. For transient transfection, 250 ng of a candidate transporter plasmid and 1 μL of transfection reagent (JetPRIME) were added to the cells. After a 2-day incubation period, the cells were washed, and novel fluorescent probes were introduced into the transport medium at various concentrations. The cells were then incubated at 37° C., for a minimum of 30 minutes to allow for uptake. To stop the transport process, the cells were washed with PBS and fixed using 4% paraformaldehyde. […]

[2] = tested on: brain endothelium / blood brain barrier; assay: In vivo two-photon imaging of mouse brain cortex after intravenous administration
Procedure: Briefly, animals are anaesthetized via intraperitoneal injections of ketamine/xylazine or via inhaled isoflurane. A region of the skull (3×3 mm) is gently removed with a high-speed drill and the underlying dura is removed. A small glass coverslip is placed over the skull to allow long term optical access for in vivo imaging. Labeling with fluorescent dyes is performed either via intravenous injections or topically application to the cortical surface for 20 min prior to glass cover placement. After recovery, in vivo images are acquired using a two-photon microscope (Bruker Technologies) equipped with a multimodal (fixed wavelength 1040 nm and tunable wavelength) InSight X3 two-photon laser (Spectra Physics) and 20× water immersion objective (Zeiss 1.0N.A.). The two-photon laser is appropriately tuned to excite particular fluorescent dyes and proteins as needed. In selected cases, following in vivo imaging, mice will be sacrificed and perfused for follow up immunohistochemistry and high-resolution confocal imaging (Leica SP8) to further confirm colocalization of dyes and cells expressing particular transporters.
One-month-old wild-type mice were anesthetized using a ketamine/xylazine solution at doses of 100 mg/kg and 10 mg/kg, respectively. The fur around the skull area was shaved, and buprenex (0.1 mg per kg) and carprofen (5 mg per kg) were administered subcutaneously. Mice were kept on a heating pad at 37° C., and anesthesia was periodically monitored. The skin was treated with povidone-iodine solution, followed by cleaning with ethanol, and eye ointment was applied. A small skin section was excised to expose the skull. Thinning of the skull was performed in a circular area, followed by delicately lifting of the remaining skull without harm to the underlying brain. Within the circular region, the dura was gently removed using fine forceps, and a 4 mm cover glass was softly pressed onto the brain surface and affixed to the skull. Fluorescent dyes were applied either through intravenous injections or topically to the cortical surface for 20 minutes before placing the glass cover. A customized head bar was attached either by adhesive (for acute imaging) or permanently implanted (using dental cement, for chronic imaging) onto the skull. Mice were imaged under a two-photon microscope (Prairie Technologies) with a mode-locked MaiTai tunable laser (Spectra Physics). Imaging was performed with a 20× water immersion objective (Zeiss, 1.0NA). Images were captured at depths up to 300 μm from the pial surface using excitation wavelengths ranging from 750 to 950 nm as previously described. Mice undergoing chronic imaging received a recovery period on a heating pad post-surgery, and buprenex (0.1 mg per kg) and carprofen (5 mg per kg) were administered for 3 days. […]

[3] = tested on: brain cell types; assay: In vivo two-photon imaging of mouse cortex after topical cortical administration of fluorophores; settings: topical cortical administration 50 μM, Tie2-GFP endothelial reporter mice

SMILES: O=S(=O)([O-])c1cc(S(=O)(=O)O)ccc1C1=c2cc3c4c(c2Oc2cc(Br)ccc21)CCC[N+]=4CCC3 [Compound 1, 2-(12-bromo-1,2,3,5,6,7-hexahydrochromeno[2,3-f]pyrido[3,2,1-ij]quinolin-4-ium-9-yl)-5-sulfobenzenesulfonate]
- uptake on expression of SLC2A3 [1]: does not induce uptake
- entry into non-endothelial cells ([2]; 2 hours post intravenous injection): does not enter non-endothelial cells; also recorded: does not enter other cells except for endothelial cells
- brain endothelial labeling after intravenous administration ([2]; IV 50 microliters at 20 mg/ml, 10 min to 130 min post injection): marked uptake of the compound into the capillary endothelial wall; also recorded: robust brain endothelial labeling
- interstitial space fluorescence / blood brain barrier crossing ([2]; IV, 10 min vs 130 min or 2 hours post injection): located in the brain interstitial space; also recorded: marked increase in the interstitial space fluorescence
- punctate labeling in the endothelium ([2]; lower concentration IV in 120 μL of PBS, around 2 hours post injection): bright punctate labeling becomes apparent in the endothelium

SMILES: COc1cc2c(c(OC)c1OC)-c1ccc(OC)c(=O)cc1C(NS(=O)(=O)c1ccc(-c3c4ccc(N(C)C)cc4[o+]c4cc(N(C)C)ccc34)c(S(=O)(=O)[O-])c1)CC2 (stereo not drawn) [Compound 47, 2-(3,6-bis(dimethylamino)xanthylium-9-yl)-5-(N-(1,2,3,10-tetramethoxy-9-oxo-5,6,7,9-tetrahydrobenzo[a]heptalen-7-yl)sulfamoyl)benzenesulfonate]
- colocalization with GFP labeling [3]: precise colocalization between Colchicine-eEDiTS and GFP labeling
